Measured values taken from publication PMC8880997, “Structure and ion-release mechanism of PIB-4-type ATPases” (eLife, 2021).

How the values were obtained:
SsZntA = molecular target: T1, SsZntA (Shigella sonnei, UniProt Q3YW59); assay: Baginski ATPase assay (Pi release) in lipid-detergent; type: biochemical; details: 5 mM ATP, Zn2+ or Cd2+, 5 mM MgCl2, Tris-HCl pH 7.5, 37 °C; KCl titration
T1 construct: gene zntA; purified as in Wang et al., 2014
T1 sequence (Q3YW59 1-732): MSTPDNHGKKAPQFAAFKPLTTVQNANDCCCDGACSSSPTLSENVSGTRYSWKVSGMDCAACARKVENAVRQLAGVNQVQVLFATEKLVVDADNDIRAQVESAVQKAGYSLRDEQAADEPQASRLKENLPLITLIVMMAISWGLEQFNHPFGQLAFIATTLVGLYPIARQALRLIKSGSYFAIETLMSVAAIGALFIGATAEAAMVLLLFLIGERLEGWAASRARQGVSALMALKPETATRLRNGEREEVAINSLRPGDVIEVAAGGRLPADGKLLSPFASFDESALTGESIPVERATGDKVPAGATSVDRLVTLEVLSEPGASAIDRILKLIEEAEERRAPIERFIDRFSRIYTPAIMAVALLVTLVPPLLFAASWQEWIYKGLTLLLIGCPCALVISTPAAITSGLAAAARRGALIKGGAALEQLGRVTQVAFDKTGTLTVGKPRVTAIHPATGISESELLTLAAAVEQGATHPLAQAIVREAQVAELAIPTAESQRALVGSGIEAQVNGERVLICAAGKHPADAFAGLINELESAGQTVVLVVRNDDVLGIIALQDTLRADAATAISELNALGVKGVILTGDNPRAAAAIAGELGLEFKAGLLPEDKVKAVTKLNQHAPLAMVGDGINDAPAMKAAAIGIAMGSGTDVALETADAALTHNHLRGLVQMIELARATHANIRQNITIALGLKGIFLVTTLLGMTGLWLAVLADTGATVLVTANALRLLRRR

sCoaT [1] = molecular target: T2, sCoaT (Sulfitobacter sp. NAS-14.1, UniProt A0ABF7PH95); assay: X-ray crystallography, […]-3.[…] Å; type: binding; set-up: gene NAS141_02821; residues before about 40-47 not modelled; details: phosphate analogue at the phosphorylation site; formed from AlCl3 and NaF with EGTA, metal-free; E2.Pi state
T2 sequence (A0ABF7PH95 1-682): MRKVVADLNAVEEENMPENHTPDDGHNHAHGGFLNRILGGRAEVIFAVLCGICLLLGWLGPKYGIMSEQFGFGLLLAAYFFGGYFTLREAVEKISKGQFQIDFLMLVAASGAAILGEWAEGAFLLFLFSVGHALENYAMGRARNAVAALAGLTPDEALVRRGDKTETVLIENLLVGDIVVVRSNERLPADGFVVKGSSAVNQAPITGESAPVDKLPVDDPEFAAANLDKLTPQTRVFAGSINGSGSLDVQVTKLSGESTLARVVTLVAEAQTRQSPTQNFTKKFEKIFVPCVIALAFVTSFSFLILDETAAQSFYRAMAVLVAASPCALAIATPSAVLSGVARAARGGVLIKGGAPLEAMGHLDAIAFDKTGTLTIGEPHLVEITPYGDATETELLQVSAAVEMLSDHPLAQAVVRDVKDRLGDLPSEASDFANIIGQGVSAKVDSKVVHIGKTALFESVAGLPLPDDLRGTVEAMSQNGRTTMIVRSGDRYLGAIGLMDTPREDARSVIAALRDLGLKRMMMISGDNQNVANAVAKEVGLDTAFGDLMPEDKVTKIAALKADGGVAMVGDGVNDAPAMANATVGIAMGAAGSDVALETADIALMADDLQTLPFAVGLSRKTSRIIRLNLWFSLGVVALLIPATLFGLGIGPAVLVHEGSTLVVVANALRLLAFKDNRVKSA

sCoaT [2] = molecular target: T2, sCoaT; set-up: gene NAS141_02821; details: phosphate analogue at the phosphorylation site; formed from BeSO4 and NaF with EGTA, metal-free; late E2P state

Nc1ncnc2c1ncn2[C@@H]1O[C@H](COP(=O)(O)OP(=O)(O)OP(=O)(O)O)[C@@H](O)[C@H]1O [ATP]
Baginski ATPase assay (Pi release) in lipid-detergent (SsZntA): Functional ATPase assay in lipid–detergent solution of sCoaT (wild-type and D601K forms) as well as SsZntA

[F][Al-]([F])([F])[F] [AlF4^−]
X-ray crystallography, 3.2-3.3 Å (sCoaT [1]): structures of sCoaT in metal-free conditions supplemented with two different phosphate analogues, BeF3^− and AlF4^−

[F][Be-]([F])[F] [BeF3^−]
X-ray crystallography, 3.1 Å (sCoaT [2]): structures of sCoaT in metal-free conditions supplemented with two different phosphate analogues, BeF3^− and AlF4^−
